Laboratory results from EPA's ToxRefDB 2.

What was measured:
[1] = tested on: rat; conditions: Prenatal developmental toxicity study, wistar, Oral, Gavage/Intubation, dose end: 19 GD
[2] = tested on: mouse; conditions: Carcinogenicity; cd1; Oral; [Not Specified]; dose end: 18 month; group: systemic; systemic / in life observation / body weight / body weight + systemic / in life observation / body weight / body weight gain
[3] = tested on: rat; conditions: Multigenerational reproductive toxicity study, sprague dawley, Oral, Feed, dose end: 2 generation
[4] = tested on: dog; conditions: Chronic toxicity; beagle; Oral; Feed; dose end: 24 month; group: systemic; systemic / in life observation / body weight / body weight gain + systemic / in life observation / food consumption / food efficiency + …
[5] = tested on: rat; conditions: Multigenerational reproductive toxicity study, sprague dawley, Oral, Gavage/Intubation, dose end: 2 generation
[6] = tested on: rat; conditions: Subchronic oral toxicity in rodents, sprague dawley, Feed, dose end: 13 week, group: systemic, systemic / in life observation / body weight / body weight + systemic / in life observation / body weight / body weight gain + systemic / in…
[7] = tested on: rat; conditions: Combined chronic toxicity/carcinogenicity, sprague dawley, Oral, Feed, dose end: 24 month, group: systemic
[8] = tested on: mouse; conditions: Subchronic oral toxicity in rodents, b6c3f1, Feed, dose end: 14 week
[9] = tested on: rat; conditions: Developmental neurotoxicity study; sprague dawley; Oral; Gavage/Intubation; dose end: 91 PND; group: cannot be grouped; systemic / in life observation / body weight / offspring (pup) weight
[10] = tested on: rat; conditions: Subchronic oral toxicity in rodents, fischer, Feed, dose end: 14 week, group: systemic, systemic / organ weight / liver / absolute + systemic / organ weight / liver / relative to body weight + systemic / hematology / platelet / …
[11] = tested on: rat; conditions: Carcinogenicity; fischer; Oral; Feed; dose end: 104 week; group: systemic; systemic / pathology microscopic / liver / hypertrophy + systemic / pathology microscopic / liver / vacuolization cytoplasmic + systemic / …
[12] = tested on: mouse; conditions: Carcinogenicity; b6c3f1; Oral; Feed; dose end: 105 week; group: systemic; systemic / pathology microscopic / liver / eosinophilic focus + systemic / pathology microscopic / liver / hypertrophy + systemic / …
[13] = tested on: rat; conditions: Subchronic oral toxicity in rodents, wistar, Feed, dose end: 90 day, group: systemic, systemic / clinical chemistry / urea nitrogen / urea + systemic / hematology / blood clotting / blood clotting - clotting time + systemic / …
[14] = tested on: rabbit; conditions: Prenatal developmental toxicity study, new zealand white, Oral, Gavage/Intubation, dose end: 19 GD
[15] = group: developmental, developmental / developmental malformation / bone / incomplete ossification
[16] = group: developmental, developmental / developmental malformation / bone / incomplete ossification + systemic / in life observation / body weight / fetal weight
[17] = group: maternal, systemic / in life observation / mortality / mortality + reproductive / offspring survival early / dead fetuses / dead fetuses
[18] = group: maternal, systemic / in life observation / mortality / mortality + reproductive / reproductive performance / postimplantation loss / postimplantation …
[19] = group: parental, systemic / in life observation / body weight / body weight
[20] = group: reproductive, reproductive / reproductive performance / gestational length / gestational length
[21] = group: offspring, developmental / offspring survival late / lactation index / lactation index + developmental / offspring survival late / viability index / …
[22] = group: parental, systemic / in life observation / clinical signs / salivation + systemic / in life observation / body weight / body weight gain + systemic / …
[23] = group: reproductive, reproductive / offspring survival early / litter size / litter size
[24] = systemic / in life observation / body weight / body weight + systemic / in life observation / body weight / body weight gain + systemic / in…
[25] = group: maternal, reproductive / reproductive performance / estrous cycle / length
[26] = group: systemic, systemic / in life observation / clinical signs / ataxia + systemic / in life observation / clinical signs / lethargy + systemic / in life …
[27] = group: developmental, systemic / in life observation / body weight / fetal weight
[28] = group: maternal, systemic / in life observation / mortality / mortality + reproductive / reproductive performance / aborted / aborted + systemic / in life …

Work on `CCCOC(=O)NCCCN(C)C.Cl` [Propamocarb hydrochloride] yielded an LEL [1, 15] of 740 mg/kg/day, an LOAEL [1, 15] of 740 mg/kg/day and an NEL [1, 16] of 221 mg/kg/day. For the same compound, the NOAEL [1, 16] was 221 mg/kg/day, the LEL [1, 17] was 740 mg/kg/day and the LOAEL [1, 17] was 740 mg/kg/day. It also gave an NEL [1, 18] of 221 mg/kg/day, an NOAEL [1, 18] of 221 mg/kg/day and an LEL [2] of 95 mg/kg/day. It also gave an LOAEL [2] of 95 mg/kg/day, an NEL [2] of 12 mg/kg/day and an NOAEL [2] of 12 mg/kg/day. The LOAEL ([3]; group: offspring, systemic / in life observation / body weight / offspring (pup) weight) was 485 mg/kg/day, the NOAEL ([3]; group: offspring, systemic / in life observation / body weight / offspring (pup) weight + systemic / organ weight / brain / relative to body weight + systemic…) was 75.4 mg/kg/day and the LEL ([3]; group: offspring, systemic / organ weight / brain / absolute) was 85.3 mg/kg/day. The NEL ([3]; group: offspring, systemic / organ weight / brain / absolute + systemic / in life observation / body weight / offspring (pup) weight + systemic / organ weight…) was 14.2 mg/kg/day, the LEL [3, 19] was 407 mg/kg/day and the LOAEL [3, 19] was 407 mg/kg/day. It also gave an NEL [3, 19] of 65.4 mg/kg/day, an NOAEL [3, 19] of 65.4 mg/kg/day and an LEL [3, 20] of 467 mg/kg/day. It also gave an LOAEL [3, 20] of over 467 mg/kg/day, an NEL [3, 20] of 76.8 mg/kg/day and an NOAEL [3, 20] of at least 467 mg/kg/day. It also gave an LEL [4] of 22.8 mg/kg/day, an LOAEL [4] of 22.8 mg/kg/day and an NEL [4] of under 22.8 mg/kg/day. It also gave an NOAEL [4] of under 22.8 mg/kg/day, an LEL [5, 21] of 1000 mg/kg/day and an LOAEL [5, 21] of 1000 mg/kg/day. It also gave an NEL [5, 21] of 200 mg/kg/day, an NOAEL [5, 21] of 200 mg/kg/day and an LEL [5, 22] of 200 mg/kg/day. It also gave an LOAEL [5, 22] of 1000 mg/kg/day, an NEL [5, 22] of 50 mg/kg/day and an NOAEL [5, 22] of 200 mg/kg/day. For the same compound, the LEL [5, 23] was 1000 mg/kg/day, the LOAEL [5, 23] was 1000 mg/kg/day and the NEL [5, 23] was 200 mg/kg/day. For the same compound, the NOAEL [5, 23] was 200 mg/kg/day, the LEL [6] was 716 mg/kg/day and the LOAEL [6] was 716 mg/kg/day. It also gave an NEL [6] of 363 mg/kg/day, an NOAEL [6] of 363 mg/kg/day and an LEL [7, 24] of 682 mg/kg/day. For the same compound, the LOAEL [7, 24] was 682 mg/kg/day, the NOAEL [7, 24] was 84 mg/kg/day and the NEL ([7]; systemic / pathology microscopic / brain / vacuolization) was 84 mg/kg/day.

`CCC1(c2ccccc2)C(=O)NCNC1=O` [Primidone] was tested, and the LEL [8, 25] was 220 mg/kg/day, the LOAEL [8, 25] was over 1100 mg/kg/day and the NEL [8, 25] was 120 mg/kg/day. It also gave an NOAEL [8, 25] of at least 1100 mg/kg/day, an LOAEL [8, 26] of over 1000 mg/kg/day and an NEL [8, 26] of 50 mg/kg/day. For the same compound, the NOAEL [8, 26] was at least 1000 mg/kg/day, the LEL ([8]; group: systemic, systemic / organ weight / liver / absolute + systemic / organ weight / liver / relative to body weight + systemic / pathology microscopic / …) was 100 mg/kg/day and the LEL [9] was 40 mg/kg/day. The LOAEL [9] was over 80 mg/kg/day, the NEL [9] was under 40 mg/kg/day and the NOAEL [9] was at least 80 mg/kg/day. The LEL [10] was 20 mg/kg/day, the LOAEL [10] was over 400 mg/kg/day and the NEL [10] was under 20 mg/kg/day. It also gave an NOAEL [10] of at least 400 mg/kg/day, an LEL [11] of 25 mg/kg/day and an LOAEL [11] of 25 mg/kg/day. It also gave an NEL [11] of under 25 mg/kg/day, an NOAEL [11] of under 25 mg/kg/day and an LEL [12] of 25 mg/kg/day. For the same compound, the LOAEL [12] was 25 mg/kg/day, the NEL [12] was under 25 mg/kg/day and the NOAEL [12] was under 25 mg/kg/day.

With `NC(=O)c1c(Cl)cccc1Cl` [2,6-Dichlorobenzamide] the LEL [13] was 49 mg/kg/day, the LOAEL [13] was 49 mg/kg/day and the NEL [13] was 14 mg/kg/day. For the same compound, the NOAEL [13] was 14 mg/kg/day, the LEL [14, 27] was 90 mg/kg/day and the LOAEL [14, 27] was 90 mg/kg/day. For the same compound, the NEL [14, 27] was 30 mg/kg/day, the NOAEL [14, 27] was 30 mg/kg/day and the LOAEL ([14]; group: maternal, systemic / in life observation / mortality / mortality) was 30 mg/kg/day. The NEL [14, 28] was 10 mg/kg/day, the NOAEL [14, 28] was 10 mg/kg/day and the LEL ([14]; group: maternal, systemic / in life observation / mortality / mortality + systemic / in life observation / clinical signs / moribundity) was 30 mg/kg/day.
